Measured values from patent publication US20170291882A1, “Solid Forms of Mirabegron” (Apotex Inc., priority 2014, published 2017).
Converted amounts (≈) assume the structure as drawn. Like-named read-outs stand apart in the source and are kept apart here. Each block holds one molecule with its values, some of them ahead of it.

Assays:
[1] = cited from earlier work; for hygroscopicity (in words): as disclosed in CA 2 464 068 C
[2] = Solubility testing of forms of Mirabegron (suspension stirred at room temperature, supernatant dried to constant weight); assay type: physicochemical
Procedure: Solubility testing was conducted by preparing a suspension of the subject form of Mirabegron in the indicated solvent and stirring the suspension for the indicated time period at room temperature. After this time, excess solid was removed by filtration and the volume of the supernatant was recorded. The supernatant was concentrated in vacuo and dried to constant weight to afford a solid. The solubility is shown as the weight of solid/volume of supernatant in mg/mL. The α-form and β-form of Mirabegron refer to the forms as characterized in CA 2 464 068 C.
Phosphate buffer was prepared by dissolving potassium dihydrogen phosphate (340 mg) and disodium hydrogen phosphate (353 mg) in deionized water (100 mL).

[3] = Hygroscopicity testing (desiccator with saturated ammonium sulphate solution, 25° C., 24 hours); assay type: physicochemical; conditions: 1 g, unstoppered vessel over saturated ammonium sulphate solution
Procedure: The hygroscopicity testing was conducted by placing 1 g of form APO-I Mirabegron in an unstoppered weighing vessel in a desiccator containing a saturated ammonium sulphate solution. The desiccator was placed in an oven at 25° C. for 24 hours. After this time, the percentage increase in mass was 0.89%.

Solubility ([2]; 0.1M HCl, 2 hours): 13.0 mg/mL (≈ 32.8 mM) | Solubility ([2]; Distilled water, 2 hours, listed as α): 0.2 mg/mL (≈ 0.504 mM) | Solubility ([2]; Ethanol (denatured), 0.5 hours, listed as α): 21.3 mg/mL (≈ 53.7 mM) | Solubility ([2]; Phosphate buffer (pH 6.8), 2 hours, listed as α): 2.5 mg/mL (≈ 6.3 mM)
Compound: Nc1nc(CC(=O)Nc2ccc(CCNC[C@H](O)c3ccccc3)cc2)cs1 [Form α, (R)-2-(2-aminothiazol-4-yl)-4′-[2-[(2-hydroxy-2-phenylethyl)amino]ethyl]acetanilide]
hygroscopicity (in words) ([1]; listed as α-form crystal): no hygroscopicity

Solubility ([2]; Ethanol (denatured), 0.5 hours, listed as β): 27.2 mg/mL (≈ 68.6 mM)
Compound: Nc1nc(CC(=O)Nc2ccc(CCNC[C@H](O)c3ccccc3)cc2)cs1 [Form β, (R)-2-(2-aminothiazol-4-yl)-4′-[2-[(2-hydroxy-2-phenylethyl)amino]ethyl]acetanilide]
hygroscopicity (in words) ([1]; listed as β-form crystal): relatively low hygroscopicity | moisture held (hygroscopic) ([1]; reported in CA 2 464 068 C): up to 3%

solubility at 2 h ([2]; 0.1M HCl, simulated gastric fluid, thermodynamic from solid, 2 hours): 15 mg/mL (≈ 37.8 mM) | Solubility ([2]; Distilled water, 2 hours, listed as APO-I): 0.5 mg/mL (≈ 1.26 mM) | Solubility ([2]; Ethanol (denatured), 0.5 hours, listed as APO-I): 62.8 mg/mL (≈ 158 mM) | Solubility ([2]; Phosphate buffer (pH 6.8), 2 hours, listed as APO-I): 6.2 mg/mL (≈ 15.6 mM) | percentage increase in mass [3]: 0.89%
Compound: Nc1nc(CC(=O)Nc2ccc(CCNC[C@H](O)c3ccccc3)cc2)cs1 [Form APO-I, Mirabegron]
